Assay type in all cases: cell-based
One assay has as its system IMR-32 cells. Description: Cytotoxicity test, Cell Counting Kit-8, 72 hours. As to conditions: Homo sapiens. How it is done: (§1) The experiment was carried out in the same manner as that in the case of using KR12. The cells used in the experiment were Kelly cells, SK-N-SH cells, IMR-32 cells, SK-N-AS cells, and MDA-MB-231 cells. These cells were cultured in a DMEM, 10% FBS and 1% Pen/St medium, and in an RPMI1640, 10% FBS and 1% Pen/St medium, respectively. The cells of each type were seeded in each well of a 96-well plate at a cell density of 1000 cells/50 μl/well, and were then cultured under conditions of 37° C., 5% CO2, and saturated humidity for 24 hours. Thereafter, a reagent was diluted with a medium (final concentration: 1, 3, 10, 30, and 100 nM), and the diluted reagent was then added to the cultured cells in an amount of 50 μl/well, and the obtained mixture was then blended. The thus obtained mixture was cultured again under conditions of 37° C., 5% CO2, and saturated humidity for 72 hours. Thereafter, Cell Counting Kit-8 (DOJINDO) was added to the obtained culture in an amount of 10 μl/well, and the thus obtained mixture was blended and was then cultured under conditions of 37° C., 5% CO2, and saturated humidity for 2 hours. The absorbance was measured using Microplate Reader MTP-310 Lab (COLONA ELECTORIC), and the IC50 value was then calculated.
as §1, with “were” for “were Kelly cells, SK-N-SH cells,”, “cells” for “cells, SK-N-AS cells,”, “TGW” for “MDA-MB-231”

In a further assay the test system is TGW cells. Description: Cytotoxicity test, Cell Counting Kit-8, 72 hours. The method, then: as §1, with “were” for “were Kelly cells, SK-N-SH cells,”, “cells” for “cells, SK-N-AS cells,”, “TGW” for “MDA-MB-231”
The subject of assay [1] is IMR-32 cells (MYCN, 25 copies). As to the kind of experiment: Cell growth curve, Incucyte culture time-lapse microscope. Conditions: IMR-32, 1 to 100 nM, FIG. 32. The method, then:
(§2) The cells were seeded in each well of a 96-well plate at a cell density of 1000 cells/50 μl/well, and were then cultured under conditions of 37° C., 5% CO2, and saturated humidity for 24 hours. On the following day, the culture media was replaced with a culture media, to which a DMSO control, or 1 nM, 3 nM, 10 nM, 30 nM or 100 nM MYCNA1 had been added, and the resulting cells were then observed under an Incucyte culture time-lapse microscope (Essen Instruments, Ann Arbor, Mich.) every 6 hours. A growth curve was produced from an imaging plate using Incucyte system (Essen Instruments, Ann Arbor, Mich.). The cells used in the experiment were neuroblastoma cell lines having MYCN amplification, IMR-32 cells (MYCN, 25 copies) and TGW cells (MYCN, 60 copies). The cells of each type were cultured in a DMEM, 10% FBS and 1% Pen/St medium, and in an RPMI1640, 10% FBS and 1% Pen/St medium, respectively.

The test system of assay [2] is TGW cells (MYCN, 60 copies). Described as above. Conditions: 1 to 100 nM, FIG. 32. The method, then: as §2
For a further assay, the system named is MCF7 cells. As to the kind of experiment: Cytotoxicity test, Cell Counting Kit-8, 72 hours. As to conditions: Homo sapiens, MCF7, breast cancer cells, 0.3 to 300 nM. How it is done:
as §1, with “MCF7 cells” for “Kelly cells, SK-N-SH cells, IMR-32 cells, SK-N-AS cells,”

Another assay has as its system NB69 cells. As to the kind of experiment: Cell growth measurement test, 72 hours. As to conditions: Homo sapiens, NB69, without MYCN amplification, 0.3 to 300 nM.
The next assay relates to HT29 cells. As to the kind of experiment: Cell growth measurement test, 72 hours. Conditions: Homo sapiens, HT-29, HT29, colon cancer cells, 0.3 to 300 nM.
For the next assay, the system named is HDF cells. As to the kind of experiment: Cell growth measurement test, 72 hours. As to conditions: fibroblasts, 0.3 to 300 nM.

Molecules are shown by their SMILES.

On to `CC(=O)Nc1cn(C)c(C(=O)Nc2cc(C(=O)Nc3cc(C(=O)NCCC(=O)Nc4cn(C)c(C(=O)Nc5cc(C(=O)NCCCC(=O)Nc6cc(C(=O)Nc7cc(C(=O)NCCC(=O)Nc8cc(C(=O)Nc9ccc%10[nH]c(C(=O)N%11CC(CCl)c%12c%11cc(O)c%11ccccc%12%11)cc%10c9)n(C)c8)n(C)c7)n(C)c6)n(C)c5)n4)n(C)c3)n(C)c2)n1` (stereo not shown) [MYCNA1], for which the IC50 in the assay with IMR-32 cells (IMR-32 cells, 1 to 100 nM, FIG. 33) amounted to 9.7 nM; with TGW cells (TGW cells, 1 to 100 nM, FIG. 33) it was 12.9 nM. Further, the “cell growth (growth curve)” value in assay [1] and in assay [2] was “suppressed by MYCNA1 in a concentration-dependent manner” each time.

Take `CC(=O)Nc1cn(C)c(C(=O)Nc2cn(C)c(C(=O)Nc3cn(C)c(C(=O)NCCC(=O)Nc4cn(C)c(C(=O)Nc5cc(C(=O)Nc6cc(C(=O)NCCCC(=O)Nc7cn(C)c(C(=O)Nc8cn(C)c(C(=O)Nc9cc(C(=O)NCCC(=O)Nc%10cc(C(=O)Nc%11ccc%12[nH]c(C(=O)N%13CC(CCl)c%14c%13cc(O)c%13ccccc%14%13)cc%12c%11)n(C)c%10)n(C)c9)n8)n7)n(C)c6)n(C)c5)n4)n3)n2)n1` (stereo not shown) [MYCNA3]: the IC50 in the assay on IMR-32 cells (IMR-32, IMR32, with MYCN amplification, 0.3 to 300 nM) was determined as 1.1 nM; with MCF7 cells, 152 nM; in the assay on TGW cells (TGW, with MYCN amplification, 0.3 to 300 nM), 3.7 nM; with NB69 cells, 77 nM; with HT29 cells, 240 nM; in the assay with HDF cells it was 56.6 nM.
